“And” between values parts separate entries of the source, which are not always exact repeats. Identical values can stand only once. Like-named read-outs stand apart in the source and are kept apart here.
What was measured:
[1] = system: male ICR mice; assay: Body temperature, antagonism of nicotine-induced hypothermia; format: in vivo; details: for AD50 Body temperature, percent effect at the individual dose: 15 min before nicotine, tested 30 min after nicotine; for block of nicotine-induced hypothermia: mice
[2] = system: male ICR mice; assay: Body temperature; format: in vivo
[3] = system: male ICR mice; assay: Tail-flick test, compound alone; format: in vivo; details: for ED50 Tail-flick, percent effect at the individual dose: tested 15 min after injection; for change of tail-flick latencies by the compound itself: highest dose tested
[4] = system: male ICR mice; assay: Tail-flick test, antagonism of nicotine-induced antinociception; format: in vivo; details: s.c., 15 min before nicotine 2.5 mg/kg, tested 5 min after nicotine; (confidence limits)
[5] = target: NMDA receptors; details: read-out: IC50, NMDA receptors; ref MacDonald et al., 1990; Morris et al., 2005; cited from earlier work
[6] = system: male ICR mice; assay: Hot-plate test, compound alone; format: in vivo; details: tested 15 min after injection
[7] = target: rat α7 nAChRs (Rattus norvegicus, UniProt Q05941); details: for α7 nH: Hill coefficient, mean
[8] = target: human α4β2 neuronal nAChRs (Homo sapiens, UniProt P17787+P43681); details: for α4β2 nH: Hill coefficient, mean
[9] = target: rat α3β4 nAChRs (Rattus norvegicus, UniProt P04757+P12392); details: for α3β4 nH: Hill coefficient, mean
[10] = system: neuronal nAChRs; assay: Whole-cell patch-clamp, time course of inhibition; format: cell-based; details: co-application with ACh following pre-exposure
[11] = target: α7 nAChRs (Rattus norvegicus, UniProt Q05941); assay: [125I]IodoMLA binding assay, rat cerebral cortex; details: read-out: Ki, [125I]MLA binding sites, 70 pM [125I]iodoMLA
[12] = system: male ICR mice; assay: Hot-plate test, antagonism of nicotine-induced antinociception; format: in vivo; details: at 10 mg/kg s.c., 15 min before nicotine
[13] = holding potential −100 to +60 mV, n=3

Sequence of human α4β2 neuronal nAChRs (P43681 29-627 limits assumed): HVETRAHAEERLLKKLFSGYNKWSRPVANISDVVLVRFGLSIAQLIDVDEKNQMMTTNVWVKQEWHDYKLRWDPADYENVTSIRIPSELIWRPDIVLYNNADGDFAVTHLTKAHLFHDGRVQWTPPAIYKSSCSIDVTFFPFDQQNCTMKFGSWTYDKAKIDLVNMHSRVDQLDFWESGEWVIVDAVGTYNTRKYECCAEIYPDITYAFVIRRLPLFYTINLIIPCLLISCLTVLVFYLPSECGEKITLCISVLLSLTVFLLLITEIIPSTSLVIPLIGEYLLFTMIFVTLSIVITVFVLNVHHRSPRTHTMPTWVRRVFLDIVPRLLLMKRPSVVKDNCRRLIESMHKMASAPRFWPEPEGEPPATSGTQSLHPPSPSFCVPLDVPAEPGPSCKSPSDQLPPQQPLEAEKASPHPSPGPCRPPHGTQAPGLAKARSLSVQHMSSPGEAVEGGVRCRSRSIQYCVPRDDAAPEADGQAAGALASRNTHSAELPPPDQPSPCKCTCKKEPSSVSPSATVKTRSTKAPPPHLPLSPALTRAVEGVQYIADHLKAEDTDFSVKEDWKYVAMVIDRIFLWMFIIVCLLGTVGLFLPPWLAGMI
Sequence of human α4β2 neuronal nAChRs (P17787 26-502): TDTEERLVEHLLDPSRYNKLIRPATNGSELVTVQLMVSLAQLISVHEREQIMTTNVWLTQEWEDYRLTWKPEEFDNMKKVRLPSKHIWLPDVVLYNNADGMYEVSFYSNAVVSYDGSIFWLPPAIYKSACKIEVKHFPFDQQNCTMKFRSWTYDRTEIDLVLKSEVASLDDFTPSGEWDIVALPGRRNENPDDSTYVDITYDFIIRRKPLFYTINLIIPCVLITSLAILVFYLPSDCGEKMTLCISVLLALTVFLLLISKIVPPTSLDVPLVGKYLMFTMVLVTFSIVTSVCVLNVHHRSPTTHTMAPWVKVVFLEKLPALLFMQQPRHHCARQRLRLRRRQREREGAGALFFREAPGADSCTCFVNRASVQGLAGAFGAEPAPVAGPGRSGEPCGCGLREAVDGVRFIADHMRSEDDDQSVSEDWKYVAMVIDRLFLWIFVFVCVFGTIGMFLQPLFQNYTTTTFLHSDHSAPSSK
Sequence of rat α3β4 nAChRs (P04757 26-499): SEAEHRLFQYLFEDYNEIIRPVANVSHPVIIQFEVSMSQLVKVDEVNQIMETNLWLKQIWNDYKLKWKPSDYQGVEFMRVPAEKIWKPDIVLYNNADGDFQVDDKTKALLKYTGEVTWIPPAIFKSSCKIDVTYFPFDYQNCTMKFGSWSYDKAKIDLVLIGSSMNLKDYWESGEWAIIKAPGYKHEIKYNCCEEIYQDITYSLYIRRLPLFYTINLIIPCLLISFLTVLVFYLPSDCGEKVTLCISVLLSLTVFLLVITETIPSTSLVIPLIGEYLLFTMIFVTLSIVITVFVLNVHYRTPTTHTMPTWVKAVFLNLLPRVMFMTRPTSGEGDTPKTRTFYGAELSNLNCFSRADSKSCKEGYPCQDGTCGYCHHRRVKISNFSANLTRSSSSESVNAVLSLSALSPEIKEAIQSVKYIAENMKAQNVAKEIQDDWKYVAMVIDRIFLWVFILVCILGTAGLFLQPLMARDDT
Sequence of rat α3β4 nAChRs (P12392 21-495): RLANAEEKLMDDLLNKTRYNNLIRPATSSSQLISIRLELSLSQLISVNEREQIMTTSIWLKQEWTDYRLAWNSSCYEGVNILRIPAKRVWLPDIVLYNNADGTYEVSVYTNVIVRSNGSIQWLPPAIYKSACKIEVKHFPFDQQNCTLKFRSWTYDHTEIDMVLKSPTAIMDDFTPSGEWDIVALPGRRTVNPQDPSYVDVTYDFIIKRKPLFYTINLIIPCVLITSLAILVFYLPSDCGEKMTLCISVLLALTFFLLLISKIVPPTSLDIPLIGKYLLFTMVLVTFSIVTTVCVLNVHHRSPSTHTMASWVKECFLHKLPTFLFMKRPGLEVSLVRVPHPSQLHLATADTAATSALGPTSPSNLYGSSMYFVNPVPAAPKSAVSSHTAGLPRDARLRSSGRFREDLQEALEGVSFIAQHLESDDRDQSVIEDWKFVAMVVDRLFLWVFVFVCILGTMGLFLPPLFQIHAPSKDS
Sequence of rat α7 nAChRs (Q05941 23-502): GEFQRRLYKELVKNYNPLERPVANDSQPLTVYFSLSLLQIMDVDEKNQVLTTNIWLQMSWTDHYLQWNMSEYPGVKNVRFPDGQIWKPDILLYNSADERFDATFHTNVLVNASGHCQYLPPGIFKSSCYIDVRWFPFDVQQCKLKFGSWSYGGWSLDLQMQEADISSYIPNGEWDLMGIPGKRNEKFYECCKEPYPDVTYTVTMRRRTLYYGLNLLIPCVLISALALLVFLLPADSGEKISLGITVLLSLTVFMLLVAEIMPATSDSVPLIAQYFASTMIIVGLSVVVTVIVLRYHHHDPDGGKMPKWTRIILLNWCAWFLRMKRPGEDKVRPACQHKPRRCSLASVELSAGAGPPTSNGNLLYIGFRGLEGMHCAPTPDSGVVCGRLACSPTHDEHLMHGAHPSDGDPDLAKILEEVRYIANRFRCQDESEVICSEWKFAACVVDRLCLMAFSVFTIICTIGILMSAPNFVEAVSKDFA
Sequence of α7 nAChRs (Q05941 23-502): as above

c1ccc(C2(N3CCCCC3)CCCCC2)cc1 [PCP, phencyclidine, reference compound]
AD50 Body temperature, percent effect at the individual dose ([1]; at 5 mg/kg s.c.): 0%@5
block of nicotine-induced hypothermia [1]: failed to block
ED50 Hypothermia, percent effect at the individual dose ([2]; at 5 mg/kg s.c.): 5%@5
ED50 Tail-flick, percent effect at the individual dose ([3]; at 5 mg/kg s.c.): 6%@5
change of tail-flick latencies by the compound itself [3]: did not significantly change
AD50 Tail-flick [4]: 1.1 (0.87–1.30) mg/kg
IC50 [5]: ~1 µM
ED50 Hot-Plate, percent effect at the individual dose ([6]; at 5 mg/kg s.c.): 5%@5
α7 nH [7]: 0.97
fold more potent at α7 than at α4β2 nAChRs ([7]; ratio of patch-clamp IC50s): 23 fold
α4β2 nH [8]: 1.4
IC50 ([8]; α4β2 IC50): 29 µM
α3β4 nH [9]: 0.65
IC50 ([9]; α3β4 IC50): 6.4 µM and 6.35 µM

CN(C)c1ccc2c(c1)CC1CC(Cc3ccccc3)N(C)C21 (stereo not drawn) [HDMP, 1,2,3,3a,4,8b-hexahydro-2-benzyl-6-N,N-dimethylamino-1-methylindeno[1,2,-b]pyrrole]
AD50 Body temperature, percent effect at the individual dose ([1]; at 10 mg/kg s.c.): 0%@10
block of nicotine-induced hypothermia [1]: failed to block
ED50 Hypothermia, percent effect at the individual dose ([2]; at 10 mg/kg s.c.): 0%@10
ED50 Tail-flick, percent effect at the individual dose ([3]; at 10 mg/kg s.c.): 2%@10
change of tail-flick latencies by the compound itself [3]: did not significantly change
AD50 Tail-flick [4]: 0.008 (0.004–0.015) mg/kg
ED50 Hot-Plate, percent effect at the individual dose ([6]; at 10 mg/kg s.c.): 8%@10
time in which the inhibitory effect develops [10]: 40 to 60 s
inhibition of whole-cell currents, α7 ([7]; 0.1 μM, −80 mV, example cell): 55%
α7 nH [7]: 0.73
fold more potent than PCP in inhibition of α7 nAChRs ([7]; based on IC50 values 1.25 and 0.07 μM): 18 fold
voltage-dependence of inhibitory effect, α7 [7, 13]: voltage-independent
fold more potent at α7 than at α3β4 nAChRs ([7]; ratio of patch-clamp IC50s): 414 fold
fold more potent at α7 than at α4β2 nAChRs ([7]; ratio of patch-clamp IC50s): 357 fold
Ki [11]: > 10 µM
effect on whole-cell currents, α4β2 ([8]; 0.1 μM, −80 mV, example cell): no effect
α4β2 nH [8]: 1.15
voltage-dependence of inhibitory effect, α4β2 [8, 13]: voltage-independent
IC50 ([8]; read-out: α4β2 IC50): 25.1 µM
effect on whole-cell currents, α3β4 ([9]; 0.1 μM, −80 mV, example cell): no effect
α3β4 nH [9]: 1.06
fold less potent than PCP in inhibition of α3β4 nAChR function ([9]; based on IC50s 28.98 and 6.35 μM): 4.6 fold
voltage-dependence of inhibitory effect, α3β4 [9, 13]: voltage-independent
IC50 ([9]; read-out: α3β4 IC50): 29 µM
AD50 Hot-Plate, percent effect (inhibition) at the individual dose [12]: 20%@10

— publication PMC2998338 (Neuropharmacology, 2010)
